US20070149508A1, “Six membered heteroaromatic inhibitors targeting resistant kinase mutations” (TargeGen, Inc., priority 2005, published 2007)
Structures can show the parent of a compound that is named as a salt.

Legend:
Abl kinase = Abl kinase (Homo sapiens, UniProt P00519); test: biochemical; details: Abl IC50 (nM), Abl kinase (Invitrogen, 20 ng/well), Abltide 100 μM, ATP 500 nM, 37° C. for 60 minutes, top concentration 10 uM
Method: Kinase activity was assessed using luminescent detection (KinaseGlo, Promega) of residual ATP concentration in reaction mixtures containing optimized levels of kinase, substrate, ATP, compound and appropriate buffers. Kinase, substrate and ATP concentrations were determined per the supplier's recommendations. Briefly, this involved running concentration curves to select for optimal signal.
The reaction mixture (50 ul/well) consisted of Abl kinase (Invitrogen, 20 ng/well); Abltide peptide substrate (Upstate, 100 μM) and ATP (500 nM). Each compound was evaluated at a top concentration of 10 uM with 1:3 dilution steps, 10 dilution steps total. Compound was diluted into DMSO and transferred to the reaction plate, resulting in a final DMSO concentration of 2%. This amount of DMSO was determined not to interfere with the enzyme. The reaction was conducted at 37° C. for 60 minutes. The degree of inhibition was assessed using IC50 determinations, which were obtained using GraphPad Prism4.

Abl (T315I) = target: T1, Abl (T315I) (Homo sapiens, UniProt P00519, T315I); test: Abl (T315I) Kinase Assay (KinaseGlo luminescent detection of residual ATP); type: biochemical; details: Abl (T315I) IC50 (nM), Abl (T315I) (Upstate, 17 ng/well), Abltide 100 uM, ATP 500 nM, 60 minutes at 37° C.
T1 construct: purchased Upstate
Method: The assay was performed similarly to the Abl kinase assay. Abl (T315I) (Upstate, 17 ng/well); Abltide substrate (100 uM) and ATP (500 nM) comprised the reaction mixture. Compound was similarly diluted, and the reaction plate was incubated for 60 minutes at 37° C.

SMILES	IC50 (Abl kinase)	IC50 (Abl (T315I))
O=C(Nc1cn2cc(/C=C/c3cnc(Nc4ccc(S(=O)(=O)C5CCNCC5)cc4)nc3)ccc2n1)C(F)(F)F [2,2,2-Trifluoro-N-{6-[(E)-2-(2-{[4-(piperidin-4-ylsulfonyl)phenyl]amino}pyrimidin-5-yl)vinyl]imidazolo[1,2-a]pyridin-2-yl}acetamide trifluoroacetic acid salt]	1130 nM	475 nM
Cc1cc(S(=O)(=O)N2CCNCC2)ccc1Nc1ncc(/C=C/c2cccc(O)c2)cn1 [3-(2-{2-[2-Methyl-4-(piperazine-1-sulfonyl)-phenylamino]-pyrimidin-5-yl}-vinyl)-phenol]	3450 nM	10400 nM
COCCN1CCN(S(=O)(=O)c2ccc(Nc3ncc(/C=C/c4ccc5nc(N)sc5c4)cn3)cc2)CC1 [6-[2-(2-{4-[4-(2-Methoxy-ethyl)-piperazine-1-sulfonyl]-phenylamino}-pyrimidin-5-yl)-vinyl]-benzothiazol-2-ylamine]	1150 nM	380 nM
O=S(=O)(c1ccc(Nc2ncc(/C=C/c3ccc(-c4ncc[nH]4)cc3)cn2)cc1)C1CCNCC1 [5-((E)-(4-(1H-imidazol-2-yl)styryl))-N-(4-(piperidin-4-ylsulfonyl)phenyl)pyrimidin-2-amine hydrochloride]	374 nM	1290 nM
C(=C\c1cccc2[nH]ccc12)/c1cnc(Nc2cccc(N3CCNCC3)c2)nc1 [{5-[2-(1H-Indol-4-yl)-vinyl]-pyrimidin-2-yl}-(3-piperazin-1-yl-phenyl)-amine]	86 nM	2600 nM
O=S(=O)(c1ccc(Nc2ncc(/C=C/c3ccc4c(c3)CC/C4=N/O)cn2)cc1)C1CCNCC1 [5-(2-{2-[4-(Piperidine-4-sulfonyl)-phenylamino]-pyrimidin-5-yl}-vinyl)-indan-1-one oxime]	593 nM	3650 nM
O=S(=O)(c1ccc(Nc2ncc(/C=C/c3ccc4[nH]ncc4c3)cn2)cc1)C1CCNCC1 [{5-[2-(1H-Indazol-5-yl)-vinyl]-pyrimidin-2-yl}-[4-(piperidine-4-sulfonyl)-phenyl]-amine]	163 nM	262 nM
Nc1nc2ccc(/C=C/c3cnc(Nc4ccc(S(=O)(=O)CCCN5CCCC5)cc4)nc3)cc2s1 [6-{(E)-2-[2-({4-[(3-pyrrolidin-1-ylpropyl)sulfonyl]phenyl}amino)pyrimidin-5-yl]vinyl}-1,3-benzothiazol-2-amine trifluoroacetic acid salt]	81 nM	173 nM
O=S(=O)(c1ccc(Nc2ncc(/C=C/c3cccc(C(F)F)c3)cn2)cc1)C1CCNCC1 [5-(3-(difluoromethyl)styryl)-N-(4-piperidin-4-ylsulfonyl)phenyl)pyrimidin 2-amine. Triflate]	162 nM	486 nM
Nc1nc2ccc(/C=C/c3cnc(Nc4ccc(OC5CCNCC5)cc4)nc3)cc2s1 [6-[(E)-2-(2-{[4-(piperidin-4-yloxy)phenyl]amino}pyrimidin-5-yl)vinyl]-1,3-benzothiazol-2-amine]	259 nM	428 nM

Now those with a lower IC50 (Abl kinase), led by results:

IC50 (Abl kinase)	IC50 (Abl (T315I))	SMILES
58 nM	167 nM	Cc1ccc(/C=C/c2cnc(Nc3ccc(S(=O)(=O)C4CCNCC4)cc3)nc2)c2cc[nH]c12 [5-((E)-2-(7-methyl-1H-indol-4-yl)vinyl)-N-(4-(piperidin-ylsulfonyl)phenyl)pyrimidin-2-amine Hydrochloride]
47 nM	29 nM	Nc1nc2ccc(/C=C/c3cnc(Nc4ccc(S(=O)(=O)NC5CCNCC5)cc4)nc3)cc2s1 [4-{5-[2-(2-Amino-benzothiazol-6-yl)-vinyl]-piperidin-4-yl-benzenesulfonamide]
40 nM	38 nM	Nc1nc2ccc(/C=C/c3cnc(Nc4ccc(S(=O)(=O)N5CCNCC5)cc4)nc3)cc2s1 [(E)-6-(2-(2-(4-(piperazin-1-ylsulfonyl)phenylamino)pyrimidin-5-yl)vinyl)benzo[d]thiazol-2-amine]
27 nM	14 nM	Nc1nc2ccc(/C=C/c3cnc(Nc4ccc(S(=O)(=O)C5CCCNCC5)cc4)nc3)cc2s1 (stereo not shown) [6-(2-{2-[4-(Azepane-4-sulfonyl)-phenylamino]-pyrimidin-5-yl}-vinyl)-benzothiazol-2-ylamine]
26 nM	738 nM	O=S(=O)(NCCN1CCCC1)c1ccc(Nc2ncc(/C=C/c3cccc4[nH]ccc34)cn2)cc1 [4-({5-[(E)-2-(1H-indol-4-yl)vinyl]pyrimidin-2-yl}amino)--N-[4-(2-pyrrolidin-1-ylethyl)benzenesulfonamide]
22 nM	225 nM	O=S(=O)(c1ccc(Nc2ncc(/C=C/c3cccc(O)c3)cn2)cc1)N1CCC(CO)CC1 [3-(2-{2-[4-(4-Hydroxymethyl-piperidine-1-sulfonyl)-phenylamino]-pyrimidin-5-yl}-vinyl)-phenol]
20 nM	231 nM	O=C(c1ccc(Nc2ncc(/C=C/c3cccc4[nH]ncc34)cn2)cc1)N1CCNCC1 [(4-(5-((E)-2-(1H-indazol-4-yl)vinyl)pyrimidin-2-ylamino)phenyl)(piperazin-1-yl)methanone hydrochloride]
18 nM	160 nM	O=S(=O)(c1ccc(Nc2ncc(/C=C/c3cccc(O)c3)cn2)cc1)N1CCC(CCO)CC1 [3-[2-(2-{4-[4-(2-Hydroxy-ethyl)-piperidine-1-sulfonyl]-phenylamino}-pyrimidin-5-yl)-vinyl]-phenol]
13 nM	972 nM	Oc1ccc(Cl)c(/C=C/c2cnc(Nc3ccc(OCCN4CCCC4)cc3)nc2)c1 [3-((E)-2-(2-(4-(2-(pyrrolidin-1-yl)ethoxy)phenylamino)pyrimidin-5-yl)vinyl)-4-chlorophenol hydrochloride]
7.6 nM	133 nM	O=S(=O)(NCCN1CCCC1)c1ccc(Nc2ncc(/C=C/c3cccc4[nH]ncc34)cn2)cc1 [4-{5-[2-(1H-Indazol-4-yl)-vinyl]-pyrimidin-2-ylamino}-N-(2-pyrrolidin-1-yl-ethyl)-benzenesulfonamide]
